From patent publication US20050054770A1, “Helicomimetics and stabilized lxxll peptidomimetics” (priority 2001, published 2005)
Read-outs that look alike come from different tables or passages of the source. Positions of bridges follow the written chain, without caps; N, C: chain ends. Non-standard residues stand in square brackets, D forms with d. Residues, ends and D or L forms follow the SMILES beside them. dPen = CC(C)(S)[C@@H](N)C(=O)O; Pen = CC(C)(S)[C@H](N)C(=O)O; d(hCys) = N[C@H](CCS)C(=O)O; hCys = N[C@@H](CCS)C(=O)O; Aib = CC(C)(N)C(=O)O

Assays:
[1] = molecular target: ER beta (Homo sapiens, UniProt Q92731); test: competition binding assay against a model linear peptide sequence (estrogen receptor-coactivator interaction), ER beta
Chain of ER beta (Q92731 whole entry): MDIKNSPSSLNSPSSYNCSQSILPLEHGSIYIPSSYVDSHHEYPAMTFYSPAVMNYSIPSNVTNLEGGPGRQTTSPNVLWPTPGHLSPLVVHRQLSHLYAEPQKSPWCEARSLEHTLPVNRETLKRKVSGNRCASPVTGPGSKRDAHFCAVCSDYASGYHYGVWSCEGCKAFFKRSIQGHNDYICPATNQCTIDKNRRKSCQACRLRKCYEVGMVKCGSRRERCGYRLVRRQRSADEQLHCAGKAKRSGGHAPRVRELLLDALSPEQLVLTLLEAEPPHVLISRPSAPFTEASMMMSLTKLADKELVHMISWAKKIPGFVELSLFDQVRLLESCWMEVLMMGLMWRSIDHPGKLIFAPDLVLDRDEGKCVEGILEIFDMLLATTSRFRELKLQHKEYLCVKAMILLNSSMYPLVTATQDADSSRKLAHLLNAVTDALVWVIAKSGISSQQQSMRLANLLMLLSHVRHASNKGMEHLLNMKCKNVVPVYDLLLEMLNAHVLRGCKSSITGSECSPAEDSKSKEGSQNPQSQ
Method: (§1) The synthetic helicormimetic peptides designed as antagonists of the estrogen receptor-coactivator interactions were tested in a competition binding assay (Lilly Research Labs) against a model linear peptide sequence. Activities are reported in the Table below in Ki values, with two of the best analogs labeled as PERM-1 and PERM-2, or Peptidomimetic Estrogen Receptor Modulators.

[2] = molecular target: T1, ER alpha (Homo sapiens, UniProt P03372); test: competition binding assay against a model linear peptide sequence (estrogen receptor-coactivator interaction), ER alpha
T1 sequence (P03372 1-595): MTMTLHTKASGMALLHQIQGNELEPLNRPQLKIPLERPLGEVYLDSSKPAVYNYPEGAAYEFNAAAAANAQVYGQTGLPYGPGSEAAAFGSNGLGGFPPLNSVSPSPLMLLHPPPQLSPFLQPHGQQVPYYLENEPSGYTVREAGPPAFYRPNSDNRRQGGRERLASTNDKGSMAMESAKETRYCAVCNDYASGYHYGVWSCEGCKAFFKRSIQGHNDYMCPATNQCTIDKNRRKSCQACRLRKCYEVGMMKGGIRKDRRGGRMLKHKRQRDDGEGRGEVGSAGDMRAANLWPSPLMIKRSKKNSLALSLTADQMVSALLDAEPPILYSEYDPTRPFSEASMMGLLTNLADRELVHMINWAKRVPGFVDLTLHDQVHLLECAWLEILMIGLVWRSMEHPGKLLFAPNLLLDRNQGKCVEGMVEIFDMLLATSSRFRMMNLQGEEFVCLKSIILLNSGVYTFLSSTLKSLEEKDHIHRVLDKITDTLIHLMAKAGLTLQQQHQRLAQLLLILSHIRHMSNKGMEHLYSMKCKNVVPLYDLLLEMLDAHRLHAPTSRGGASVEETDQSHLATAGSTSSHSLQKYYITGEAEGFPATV
Method: as §1

[3] = system: estrogen receptors; test: inhibition of the binding of the estrogen receptors to the helical segment of coactivator proteins; details: result in words
Method: as §1

[4] = competition binding assay (Lilly Research Labs), read-out: Ki ER β
[5] = competition binding assay (Lilly Research Labs), read-out: Ki ER α

| Compound | Ki [1, 4] [nM] | Ki [2, 5] [nM] | further results |
| --- | --- | --- | --- |
| CC(C)C[C@H](NC(=O)[C@H](CC(C)C)NC(=O)[C@H](CCCNC(=N)N)NC(=O)[C@H]1CSSC[C@@H](NC(=O)[C@@H](N)CCCCN)C(=O)N[C@@H](CC(C)C)C(=O)N1)C(=O)N[C@@H](CCC(N)=O)C(N)=O [AKG-I-64, H-Lys-cyclo(D-Cys-Leu-D-Cys)-Arg-Leu-Leu-Gln-NH2] (H-K[dC]L[dC]RLLQ-NH2; disulfide 2-4) | 5200 | 1800 | – |
| CC[C@H](C)[C@@H]1NC(=O)[C@H](CC(C)C)NC(=O)[C@H](NC(=O)[C@@H](N)CCCNC(=N)N)CSSC[C@@H](C(=O)N[C@@H](CCCNC(=N)N)C(=O)N[C@@H](CC(C)C)C(=O)N[C@@H](CC(C)C)C(=O)N[C@@H](CCC(N)=O)C(N)=O)NC1=O [AKG-II-1, H-Arg-cyclo (D-Cys-Leu-Ile-Cys)-Arg-Leu-Leu-Gln-NH2] (H-R[dC]LICRLLQ-NH2; disulfide 2-5) | 216 | 13 | – |
| CC[C@H](C)[C@@H]1NC(=O)[C@H](NC(=O)[C@@H](N)CCCNC(=N)N)CSSCC[C@@H](C(=O)N[C@@H](CCCNC(=N)N)C(=O)N[C@@H](CC(C)C)C(=O)N[C@@H](CC(C)C)C(=O)N[C@@H](CCC(N)=O)C(N)=O)NC(=O)[C@H](CC(C)C)NC1=O [AKG-II-3, H-Arg-cyclo (D-Cys-Ile-Leu-HomoCys)-Arg-Leu-Leu-Gln-NH2] (H-R[dC]IL[hCys]RLLQ-NH2; disulfide 2-5) | 214 | 13 | – |
| CC[C@H](C)[C@@H]1NC(=O)[C@H](NC(=O)[C@@H](N)CCCNC(=N)N)CCSSC[C@@H](C(=O)N[C@@H](CCCNC(=N)N)C(=O)N[C@@H](CC(C)C)C(=O)N[C@@H](CC(C)C)C(=O)N[C@@H](CCC(N)=O)C(N)=O)NC(=O)[C@H](CC(C)C)NC1=O [AKG-II-4, H-Arg-cyclo (DHomoCys-lIe-Leu-Cys)- Arg-Leu-Leu-Gln-NH2] (H-R[d(hCys)]ILCRLLQ-NH2; disulfide 2-5) | 591 | 35 | – |
| CC[C@H](C)[C@@H]1NC(=O)[C@@H](NC(=O)[C@@H](N)CCCNC(=N)N)CSSC[C@@H](C(=O)N[C@@H](CC(C)C)C(=O)N[C@@H](CC(C)C)C(=O)N[C@@H](CCC(N)=O)C(N)=O)NC(=O)[C@H](CCCNC(=N)N)NC(=O)[C@H](CC(C)C)NC1=O [AKG-II-8, H-Arg-cyclo (Cys-Ile-Leu-Arg-Cys)-Leu-Leu-Gln-NH2] (H-RCILRCLLQ-NH2; disulfide 2-6) | 1160 | 174 | – |
| CC[C@H](C)[C@@H]1NC(=O)[C@H](NC(=O)[C@@H](N)CCCNC(=N)N)C(C)(C)SSC[C@@H](C(=O)N[C@@H](CCCNC(=N)N)C(=O)N[C@@H](CC(C)C)C(=O)N[C@@H](CC(C)C)C(=O)N[C@@H](CCC(N)=O)C(N)=O)NC(=O)[C@H](CC(C)C)NC1=O [AKG-II-9, H-Arg-cyclo (D-Pen-Ile-Leu-Cys)-Arg-Leu-Leu-Gln-NH2] (H-R[dPen]ILCRLLQ-NH2; disulfide 2-5) | 933 | 168 | – |
| CC[C@H](C)[C@@H]1NC(=O)[C@H](NC(=O)[C@@H](N)CCCNC(=N)N)CSSC(C)(C)[C@@H](C(=O)N[C@@H](CCCNC(=N)N)C(=O)N[C@@H](CC(C)C)C(=O)N[C@@H](CC(C)C)C(=O)N[C@@H](CCC(N)=O)C(N)=O)NC(=O)[C@H](CC(C)C)NC1=O [AKG-II-10, H-Arg-cyclo (D-Cys-Ile-Leu-Pen)-Arg-Leu-Leu-Gln-NH2] (H-R[dC]IL[Pen]RLLQ-NH2; disulfide 2-5) | 1910 | 88 | – |
| CC[C@H](C)[C@@H]1NC(=O)[C@H](NC(=O)[C@@H](N)CCCNC(=N)N)C(C)(C)SSC(C)(C)[C@@H](C(=O)N[C@@H](CCCNC(=N)N)C(=O)N[C@@H](CC(C)C)C(=O)N[C@@H](CC(C)C)C(=O)N[C@@H](CCC(N)=O)C(N)=O)NC(=O)[C@H](CC(C)C)NC1=O [AKG-II-11, H-Arg-cyclo(D-Pen-Ile-Leu-Pen)-Arg-Leu-Leu-Gln-NH2] (H-R[dPen]IL[Pen]RLLQ-NH2; disulfide 2-5) | 3970 | 78 | – |
| CC[C@H](C)[C@@H]1NC(=O)[C@H](NC(=O)[C@@H](N)CCCCN)CSSC[C@@H](C(=O)N[C@@H](CCCNC(=N)N)C(=O)N[C@@H](CC(C)C)C(=O)N[C@@H](CC(C)C)C(=O)N[C@@H](CCC(N)=O)C(N)=O)NC(=O)[C@H](CC(C)C)NC1=O [AML-I-48/4, H-Lys-cyclo (D-Cys-Ile-Leu-Cys)-Arg-Leu-Leu-Gln-NH2] (H-K[dC]ILCRLLQ-NH2; disulfide 2-5) | 390 | – | Ki ([1]; read-out: Ki value against ER beta): ~390 nM; selectivity ER alpha versus ER beta ([2]; from Ki values against ER alpha and ER beta): exhibits selectivity against the ER alpha receptor; Ki ([2]; read-out: Ki value against ER alpha): 25 nM |
| CC[C@H](C)[C@H](NC(=O)[C@H](CCCCN)NC(=O)[C@@H](N)CCCCN)C(=O)N[C@@H](CC(C)C)C(=O)N[C@@H](Cc1c[nH]cn1)C(=O)N[C@@H](CCCNC(=N)N)C(=O)N[C@@H](CC(C)C)C(=O)N[C@@H](CC(C)C)C(=O)N[C@@H](CCC(N)=O)C(N)=O [AML-I-61/2, H-Lys-Lys-Ile-Leu-His-Arg-Leu-Leu-Gln-NH2] (H-KKILHRLLQ-NH2) | 2800 | 170 | – |
| CC[C@H](C)[C@@H]1NC(=O)[C@H](NC(=O)[C@H](CCCCN)NC(C)=O)CSSC[C@@H](C(=O)N[C@@H](CCCNC(=N)N)C(=O)N[C@@H](CC(C)C)C(=O)N[C@@H](CC(C)C)C(=O)N[C@@H](CCC(N)=O)C(N)=O)NC(=O)[C@H](CC(C)C)NC1=O [AML-I-71/2, Ac-Lys-cyclo(D-Cys-Ile-Leu-Cys)-Arg-Leu-Leu-Gln-NH2] (Ac-K[dC]ILCRLLQ-NH2; disulfide 2-5) | 7700 | 120 | – |
| CC[C@H](C)[C@@H]1NC(=O)[C@H](NC(=O)[C@H](CCCCN)NC(=O)C(C)(C)N)CSSC[C@@H](C(=O)N[C@@H](CCCNC(=N)N)C(=O)N[C@@H](CC(C)C)C(=O)N[C@@H](CC(C)C)C(=O)N[C@@H](CCC(N)=O)C(N)=O)NC(=O)[C@H](CC(C)C)NC1=O [AML-I-83/4, Aib-Lys-cyclo(D-Cys-Ile-Leu-Cys)-Arg-Leu-Leu-Gln-NH2] (H-[Aib]K[dC]ILCRLLQ-NH2; disulfide 3-6; N-terminus assumed) | 1400 | 130 | – |
| CC[C@H](C)[C@H](NC(=O)[C@H](CCCCN)NC(=O)[C@H](Cc1c[nH]cn1)NC(=O)[C@@H](N)CCCCN)C(=O)N[C@@H](CC(C)C)C(=O)N[C@@H](Cc1c[nH]cn1)C(=O)N[C@@H](CCCNC(=N)N)C(=O)N[C@@H](CC(C)C)C(=O)N[C@@H](CC(C)C)C(=O)N[C@@H](CCC(N)=O)C(=O)N[C@@H](CC(=O)O)C(=O)N[C@@H](CO)C(=O)N[C@@H](CO)C(=O)O [AML-I-89/2, H-Lys-His-Lys-Ile-Leu-His-Arg-Leu-Leu-Gln-Asp-Ser-Ser-OH] (H-KHKILHRLLQDSS-OH) | 6900 | 380 | – |
| Leu-Asn-Gln-Leu-Leu (LNQLL; printed: Leu-Asn-Gln-Leu-Leu) | – | – | inhibitory activity on binding of estrogen receptors to helical segment of coactivator proteins [3]: do not display any inhibitory activity |
